Results reported in patent US20260364072A1, “METHODS FOR PROMOTING EXPANSION OF HUMAN CD34+ CELLS IN VIVO AND FOR PROMOTING NEURAL REGENERATION” (THE REGENTS OF THE UNIVERSITY OF CALIFORNIA, priority 2023, published 2026).

How the values were obtained:
normal aged HSPC = assay: ADAR1 nanoluc-GFP aged normal bone marrow CD34+ engrafted mice; type: in vivo, human cells in immunocompromised mice; details: 10 mg/kg
Description: To further test the utility of the ADAR1 nanoluc-GFP reporter for in vivo detection of endogenous ADAR1 activity, primary human aged normal bone marrow CD34^+ cells were transduced with the reporter vector and transplanted into immunocompromised mice. ADAR1 activity was detected by live animal bioluminescence imaging and corresponded with human cell engraftment detection by flow cytometry.
In humanized mouse models, sAML cells (CD34^+) from two unique […] patient samples that were splicing factor mutated or unmutated were utilized, including sAML50261 and sAML2008-5.^14 For in vivo efficacy and therapeutic index studies, sAML CD34^+ cells, or normal human cord blood-derived or aged bone marrow-derived HSPCs (CD34^+), were transplanted (50,000-200,000 cells per mouse) intrahepatically into neonatal Rag2^−/−γc^−/− mice, or intravenously into adult NSG-SGM3 mice (Jackson Laboratories, Bar Harbor, ME). A subset of experiments was performed with normal aged bone marrow cells that were transduced with the lentiviral ADAR1 nanoluc-GFP reporter vector prior to transplant. For transplantation into adult mice, animals were irradiated with ^137Cs at a dose of 150 cGy 24 hr before IV transplantation. […]

SF3B3 = SF3B3 splice biomarker analysis in human CD45+ cells from normal HSPC engrafted mice; type: in vivo
Description: After completion of treatment and engraftment analyses of in vivo normal HSPC assays, total human hematopoietic cells (CD45^+) were selected for splice biomarker analyses to determine sensitivity of normal human hematopoietic cells to Rebecsinib compared with sAML LSC.
For quantitative analysis of splice isoform expression, RNA editing rates, and whole gene expression by qRT-PCR, cells or tissue fragments were harvested in RNA lysis buffer and total RNA was extracted using RNeasy mini or micro extraction kits (QIAGEN, Germantown, MD) following the manufacturer's protocol including a DNase incubation step to digest any trace genomic DNA present. Levels of ADAR1 variants and LSC-specific transcripts were quantified by qRT-PCR as previously described.^14 RNA-editing site-specific qRT-PCR (RESSqPCR) was performed for variants in AZIN1 transcripts.^53 Additional species-specific primers were also designed to quantify intron retention rates in cells treated with Rebecsinib as a biomarker of response to RNA splicing modulation. Specifically, for the two-step SYBR-green based assays, as previously described,^7,14,53 100-1000 ng of RNA were subjected to cDNA synthesis using the SUPERSCRIPT III™ (ThermoFisher Scientific) kit followed by qRT-PCR using SYBR GreenER (ThermoFisher Scientific) master mix according to the manufacturer's recommended procedures. qRT-PCR was performed using SYBR GREENER SUPER MIX™ (Life Technologies) on BioRad iQ5™, C1000 TOUCH™, or BioRad CFX384™ instruments. Human splice isoform-specific, RNA editing site-specific qPCR (RESSqPCR)^53. Primer sets that have not been previously published were designed and tested for efficiency followed by analyses in samples exposed to Rebecsinib, with species-specific HPRT primers used as controls. Samples with Ct<35 for the species-specific reference gene, HPRT, were included in analyses. Relative mRNA expression values were calculated using the 2^−ΔCT method, with normalization to untreated or vehicle-treated controls.^54 […]

ADAR1p150 = ADAR1p150 protein by intracellular flow cytometry in high-risk MF samples; type: cell-based, human; details: 72 hr
Method: (FIG. 28C) Flow cytometry-based quantification of ADAR1 p150 protein expression in high-risk MF samples after in vitro transduction of primary CD34^+ cells with ADAR1 nanoluc-GFP reporter or vector control (pCDH) followed by treatment with vehicle control (DMSO) or Rebecsinib (72 hr).
Flow cytometry for stem and progenitor cell surface antibody staining was performed as previously described.^14 For phospho-flow, a subset of samples was fixed and permeabilized, then blocked and stained with APC-conjugated ADAR1p150 antibody (cat ab269444, 1:25) and pSTAT3 APC (cat 17-9033-42, 1:10) (Table S2). Fractions were analyzed with the BD LSR FORTESSA™ (Sanford Consortium for Regenerative Medicine Stem Cell Core) and FLOWJO™ software (TreeStar, Ashland, OR).

[1] = test system: MCL1 and SF3B3 transcripts; assay: Pharmacodynamic splice isoform qRT-PCR in PBMCs from treated NHPs; type: in vivo, cynomolgus monkeys
Method: Pharmacodynamic studies were conducted on peripheral blood mononuclear cells (PBMCs) isolated from NHPs treated with escalating doses of Rebecsinib (3 mg/kg, 10 mg/kg, 15 mg/kg or 20 mg/kg) or a vehicle control and collected at 30 minute and 4 hours post-dose.
(FIG. 29G, FIG. 29H) For in vivo TK and complementary pharmacodynamic studies, NHPs were given a single injection of Rebecsinib at 3-20 mg/kg, or vehicle control, and blood samples were drawn at regular intervals to determine plasma concentrations (FIG. 29G) of the compound along with splice isoform biomarker assays to quantify MCL1 exon skipping in PBMCs isolated from treated animals (FIG. 29H, n=2 animals per group).
For quantitative analysis of splice isoform expression, RNA editing rates, and whole gene expression by qRT-PCR, cells or tissue fragments were harvested in RNA lysis buffer and total RNA was extracted using RNeasy mini or micro extraction kits (QIAGEN, Germantown, MD) following the manufacturer's protocol including a DNase incubation step to digest any trace genomic DNA present. Levels of ADAR1 variants and LSC-specific transcripts were quantified by qRT-PCR as previously described.^14 RNA-editing site-specific qRT-PCR (RESSqPCR) was performed for variants in AZIN1 transcripts.^53 Additional species-specific primers were also designed to quantify intron retention rates in cells treated with Rebecsinib as a biomarker of response to RNA splicing modulation. Specifically, for the two-step SYBR-green based assays, as previously described,^7,14,53 100-1000 ng of RNA were subjected to cDNA synthesis using the SUPERSCRIPT III™ (ThermoFisher Scientific) kit followed by qRT-PCR using SYBR GreenER (ThermoFisher Scientific) master mix according to the manufacturer's recommended procedures. qRT-PCR was performed using SYBR GREENER SUPER MIX™ (Life Technologies) on BioRad iQ5™, C1000 TOUCH™, or BioRad CFX384™ instruments. Human splice isoform-specific, RNA editing site-specific qPCR (RESSqPCR)^53. Primer sets that have not been previously published were designed and tested for efficiency followed by analyses in samples exposed to Rebecsinib, with species-specific HPRT primers used as controls. Samples with Ct<35 for the species-specific reference gene, HPRT, were included in analyses. Relative mRNA expression values were calculated using the 2^−ΔCT method, with normalization to untreated or vehicle-treated controls.^54

CC[C@H](OC)[C@@H](C)[C@H]1O[C@@H]1[C@@H](O)[C@H](C)/C=C/C=C(\C)[C@H]1OC(=O)C[C@H](O)CC[C@@](C)(O)[C@@H](OC(C)=O)/C=C/[C@@H]1C [Rebecsinib]
human HSPC engraftment and mature T or B cell maturation (normal aged HSPC): no loss of human HSPC engraftment or mature T or B cell maturation | frequency of normal CD34+ cells in bone marrow (normal aged HSPC; in comparison to cord blood transplantation models): appeared to be increased | SF3B3 intron retention in bone marrow (SF3B3; normal human CD45+ cells): no changes in SF3B3 intron retention | SF3B3 intron retention in spleen (SF3B3; normal human CD45+ cells): trend toward changes in the spleen that were not statistically significant | sensitivity of sAML LSC to splicing modulation versus normal HSPCs (SF3B3; therapeutic index, humanized mouse models): sAML LSC are significantly more sensitive to splicing modulation than normal HSPCs | ADAR1p150 protein expression (ADAR1p150): reduced ADAR1p150 protein expression | MCL1 exon skipping in PBMCs ([1]; NHP, 3, 10, 15 or 20 mg/kg, 30 minute and 4 hours post-dose): on-target splicing modulation typified by MCL1 exon skipping | splicing modulation ([1]; NHP, PD analyses): predictable, dose-dependent splicing modulation | SF3B3 intron retention in PBMCs, 4 hours ([1]; NHP, single doses of 3, 10, 15 or 20 mg/kg): detectable at 4 hours | SF3B3 intron retention in PBMCs, 30 min ([1]; NHP, single doses of 3, 10, 15 or 20 mg/kg, compared with vehicle): increased at 30 min
